US20100105652A1, “PURINES AS CYSTEINE PROTEASE INHIBITORS” (Glaxo Group Limited, priority 2007, published 2010)
Counter-ions that a name gives are not always drawn.

Legend:
[1] = system: Plasmodium falciparum parasite; test: whole cell activity against the Plasmodium falciparum parasite; assay type: cell-based
Source text: Equation 7 describes the apparent KI for competitive compounds and was substituted into equations 5 and 6 to generate the relevant binding constants from the fitting routine. In addition, the initial and final velocities were fit to equation 3 to further define the binding mechanism and potency. A complete discussion of this kinetic treatment has been fully described (Morrison et al., Adv. Enzymol. Relat. Areas Mol. Biol., 1988, 61, 201). 2) Determination of Whole Cell Activity Against the Plasmodium falciparum Parasite Compounds can be evaluated for whole cell activity against the Plasmodium falciparum parasite according to the procedure described in Sijwali S, and Rosenthal P. J., (2004) Proceedings of the National Academy of Sciences of the United States of America (PNAS) 101(13), 4384-4389 (see in particular “Measurement of Parasite Growth rates and Inhibitor Sensitivity” on page 4385); IC50 values can be calculated as described in Singh A. and Rosenthal P. J., (2001) Antimicrobial Agents and Chemotherapy 45(3), 949-951 (see in particular page 950, first column); synchronised parasites can be prepared as described in Divo A. A. et al., (1985) Protozool. 32, 59-64.

[2] = biological target: T1, Falcipain-3 (Plasmodium falciparum, UniProt Q8IIL0); test: falcipain-3 enzymatic assay (fluorogenic substrate H-D-VLR-AFC, endpoint); assay type: biochemical; settings: parasitic recombinant enzyme, pH 5.5, quenched after 60 minutes
T1 sequence (Q8IIL0 243-492): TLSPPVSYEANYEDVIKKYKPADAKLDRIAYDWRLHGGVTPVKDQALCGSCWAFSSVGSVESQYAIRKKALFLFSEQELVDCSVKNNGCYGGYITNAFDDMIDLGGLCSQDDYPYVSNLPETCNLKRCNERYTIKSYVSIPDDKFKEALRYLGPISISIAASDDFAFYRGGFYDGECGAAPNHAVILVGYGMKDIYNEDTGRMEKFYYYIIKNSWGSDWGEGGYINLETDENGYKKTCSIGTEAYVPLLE
Experimental: (§1) 1) Determination of Falcipain-2, Falcipain-3, Vivapain-2, and Cathepsin S Proteolytic Catalytic Activity
(§2) Assays for Falcipain-2, Falcipain-3, and Vivapain-2 are carried out with parasitic recombinant enzymes. Cathepsins S is carried out with human recombinant enzymes. Standard assay conditions for the determination of kinetic constants used a fluorogenic peptide substrate, typically H-D-VLR-AFC (Falcipain-2, Falcipain-3, Vivapain-2) or KQKLR-AMC (Cathepsin S) and are determined in 100 mM sodium acetate, pH 5.5, containing 10 mM DTT and 0.5 mM CHAPS (Falcipain-2, Falcipain-3, Vivapain-2), or 50 mM MES, pH 6.5, containing 0.5 mM CHAPS, 10 mM L-CYS, 5 mM EDTA (Cathepsin S). Stock substrate solutions are prepared at 20 mM in DMSO. The activity assays contained 30 uM substrate (Falcipain-2, Falcipain-3, Vivapain-2), and 30 uM substrate (Cathepsin S). All assays contained 1% DMSO. […] All assays are conducted at ambient temperature as end point assays being quenched after 60 minutes with the exception of Cathepsin S at 90 minutes, with 16.6 uM E-64 in 1% DMSO. Product formation (AFC or AMC) is determined from fluorescence (excitation at 405 nm; emission at 530 nm, AFC, or excitation at 360 nm; emission at 460 nm, AMC) monitored with a LJL Aquest (Molecular Devices) fluorescent plate reader. In the case of kinetic reads (used in mechanism of action studies), the reaction is not quenched but is read in the plate reader every 3 minutes for approximately 90 minutes. In addition, the mechanism of action studies for Falcipain-2 utilize Z-LR-AMC as the substrate. Product formation is determined from the fluorescence of AMC, measured with a LJL Acquest (Molecular Devices) fluorescent plate reader (excitation at 360 nm; emission at 460 nm).
(§3) Potential inhibitors are evaluated using the quenched read (endpoint) method. Assays are carried out in the presence of variable concentrations of test compound. Reactions are initiated by addition of enzyme and substrate to wells containing inhibitor stamped in 100% DMSO. For endpoint assays, the reaction is quenched with the addition of E64. Dose response data is fit to an IC50 curve with preset fitting tools according to equation 1:
(§4) y=a+(b−a)/(1+(10^X/10^C)^d) (1)
(§5) where y is the response at a particular inhibitor concentration x, a is the minimum response value, b is the maximum response value, c is the IC50, and d is the slope of the IC50 curve. Assuming the compound is a competitive inhibitor, the apparent KI can be calculated from IC50, as shown in equation 2: […]

[3] = biological target: T2, Falcipain-2 (Plasmodium falciparum, UniProt Q8I6U4); test: falcipain-2 enzymatic assay (fluorogenic substrate H-D-VLR-AFC, endpoint); assay type: biochemical; settings: parasitic recombinant enzyme, pH 5.5, quenched after 60 minutes
T2 sequence (Q8I6U4 244-484): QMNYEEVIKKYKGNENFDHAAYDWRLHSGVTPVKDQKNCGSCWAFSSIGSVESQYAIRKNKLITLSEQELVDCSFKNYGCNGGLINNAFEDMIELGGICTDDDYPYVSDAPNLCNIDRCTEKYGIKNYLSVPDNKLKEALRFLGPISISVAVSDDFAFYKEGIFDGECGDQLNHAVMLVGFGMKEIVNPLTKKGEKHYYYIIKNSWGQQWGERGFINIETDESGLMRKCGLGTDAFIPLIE
Experimental: as §1, §2, §3, §4, §5

IC50 [1] [nM] | IC50 [2] [nM] | IC50 [3] [nM] | Structure (SMILES)
15 to 150 | 15 to 150 | 2.5 to 15 | CN1CCN(C2CCN(Cc3ccc(C(=O)NN(CC4CCCC4)c4nc(C#N)nc5c4ncn5C)cc3)CC2)CC1 [Example 1, N′-(2-cyano-9-methyl-9H-purin-6-yl)-N′-(cyclopentylmethyl)-4-({[4-(4-methyl-1-piperazinyl)-1-piperidinyl]methyl}benzohydrazide trifluoroacetate]
15 to 150 | 15 to 150 | 2.5 to 15 | CN1CCC(CN2CCN(Cc3ccc(C(=O)NN(CC4CCCC4)c4nc(C#N)nc5c4ncn5C)cc3)CC2)CC1 [Example 2, N′-(2-cyano-9-methyl-9H-purin-6-yl)-N′-(cyclopentylmethyl)-4-({4-[(1-methyl-4-piperidinyl)methyl]-1-piperazinyl}methyl)benzohydrazide trifluoroacetate]
15 to 150 |  | 2.5 to 15 | CN1CCCC(CN2CCN(Cc3ccc(C(=O)NN(CC4CCCC4)c4nc(C#N)nc5c4ncn5C)cc3)CC2)C1 (centres unmarked) [Example 3, N′-(2-cyano-9-methyl-9H-purin-6-yl)-N′-(cyclopentylmethyl)-4-({4-[(1-methyl-3-piperidinyl)methyl]-1-piperazinyl}methyl)benzohydrazide trifluoroacetate]
2.5 to 15 | 150 to 250 | 2.5 to 15 | CN1CCN(C2CCN(Cc3ccc(C(=O)NN(c4nc(C#N)nc5c4ncn5C)C4CCCC4)cc3)CC2)CC1 [Example 4, N′-(2-cyano-9-methyl-9H-purin-6-yl)-N′-cyclopentyl-4-({[4-(4-methyl-1-piperazinyl)-1-piperidinyl]methyl}benzohydrazide trifluoroacetate]
2.5 to 15 | 250 to 400 | 2.5 to 15 | CN1CCC(CN2CCN(Cc3ccc(C(=O)NN(c4nc(C#N)nc5c4ncn5C)C4CCCC4)cc3)CC2)CC1 [Example 5, N′-(2-cyano-9-methyl-9H-purin-6-yl)-N′-cyclopentyl-4-({4-[(1-methyl-4-piperidinyl)methyl]-1-piperazinyl}methyl)benzohydrazide trifluoroacetate]
15 to 150 | 150 to 250 | 2.5 to 15 | CN1CCN(C(=O)C2CCN(Cc3ccc(C(=O)NN(c4nc(C#N)nc5c4ncn5C)C4CCCC4)cc3)CC2)CC1 [Example 6, N′-(2-cyano-9-methyl-9H-purin-6-yl)-N′-cyclopentyl-4-({4-[(4-methyl-1-piperazinyl)carbonyl]-1-piperidinyl}methyl)benzohydrazide trifluoroacetate]
15 to 150 | 250 to 400 | 2.5 to 15 | Cn1cnc2c(N(NC(=O)c3ccc(CN4CC(N5CCCC5)C4)cc3)C3CCCC3)nc(C#N)nc21 [Example 7, N′-(2-cyano-9-methyl-9H-purin-6-yl)-N′-cyclopentyl-4-({[3-(1-pyrrolidinyl)-1-azetidinyl]methyl}benzohydrazide trifluoroacetate]
2.5 to 15 | 15 to 150 | 1 to 2.5 | CN1CCN(C2CCN(Cc3ccc(C(=O)NN(c4nc(C#N)nc5c4ncn5C)C4CCCCC4)cc3)CC2)CC1 [Example 8, N′N′-(2-cyano-9-methyl-9H-purin-6-yl)-N′-cyclohexyl-4-({[4-(4-methyl-1-piperazinyl)-1-piperidinyl]methyl}benzohydrazide trifluoroacetate]
2.5 to 15 | 15 to 150 | 2.5 to 15 | CN1CCC(CN2CCN(Cc3ccc(C(=O)NN(c4nc(C#N)nc5c4ncn5C)C4CCCCC4)cc3)CC2)CC1 [Example 9, N′-(2-cyano-9-methyl-9H-purin-6-yl)-N′-cyclohexyl-4-({4-[(1-methyl-4-piperidinyl)methyl]-1-piperazinyl}methyl)-benzohydrazide trifluoroacetate]
2.5 to 15 | 15 to 150 | 2.5 to 15 | CN1CCN(C(=O)C2CCN(Cc3ccc(C(=O)NN(c4nc(C#N)nc5c4ncn5C)C4CCCCC4)cc3)CC2)CC1 [Example 10, N′-(2-cyano-9-methyl-9H-purin-6-yl)-N′-cyclohexyl-4-({4-[(4-methyl-1-piperazinyl)carbonyl]-1-piperidinyl}methyl)benzohydrazide trifluoroacetate]
15 to 150 | 15 to 150 | 2.5 to 15 | Cn1cnc2c(N(NC(=O)c3ccc(CN4CC(N5CCCC5)C4)cc3)C3CCCCC3)nc(C#N)nc21 [Example 11, N′-(2-cyano-9-methyl-9H-purin-6-yl)-N′-cyclohexyl-4-({[3-(1-pyrrolidinyl)-1-azetidinyl]methyl}benzohydrazide trifluoroacetate]
15 to 150 | 15 to 150 | 1 to 2.5 | CN(C)CCCn1cnc2c(N(CC3CCCC3)NC(=O)OC(C)(C)C)nc(C#N)nc21 [Example 12, 1,1-dimethylethyl 2-{2-cyano-9-[3-(dimethylamino)propyl]-9H-purin-6-yl}-2-(cyclopentylmethyl)hydrazinecarboxylate trifluoroacetate]
15 to 150 | 15 to 150 | ≤ 1 | CN(C)CCn1cnc2c(N(CC3CCCC3)NC(=O)OC(C)(C)C)nc(C#N)nc21 [Example 13, 1,1-dimethylethyl 2-{2-cyano-9-[2-(dimethylamino)ethyl]-9H-purin-6-yl}-2-(cyclopentylmethyl)hydrazinecarboxylate trifluoroacetate]
15 to 150 | 15 to 150 | 2.5 to 15 | CN(C)CCn1cnc2c(N(CC3CCCC3)NC(=O)c3ccc(CN4CCN(C)CC4)cc3)nc(C#N)nc21 [Example 14, N′-{2-cyano-9-[2-(dimethylamino)ethyl]-9H-purin-6-yl}-N′-(cyclopentylmethyl)-4-[(4-methyl-1-piperazinyl)methyl]benzohydrazide trifluoroacetate]
15 to 150 | 15 to 150 | 2.5 to 15 | CN(C)CCCn1cnc2c(N(NC(=O)OC(C)(C)C)C3CCCC3)nc(C#N)nc21 [Example 15, 1,1-dimethylethyl 2-{2-cyano-9-[3-(dimethylamino)propyl]-9H-purin-6-yl}-2-cyclopentylhydrazinecarboxylate trifluoroacetate]
2.5 to 15 | 150 to 250 | 2.5 to 15 | CN(C)CCCN(C(=O)OC(C)(C)C)N(CC1CCCC1)c1nc(C#N)nc2c1ncn2CCCN(C)C [Example 16, 1,1-dimethylethyl 2-{2-cyano-9-[3-(dimethylamino)propyl]-9H-purin-6-yl}-2-(cyclopentylmethyl)-1-[3-(dimethylamino)propyl]hydrazinecarboxylate trifluoroacetate]
15 to 150 | 250 to 400 | 1 to 2.5 | CN(C)CCCn1cnc2c(N(NC(=O)c3ccc(CN4CCN(C)CC4)cc3)C3CCCC3)nc(C#N)nc21 [Example 17, N′-{2-cyano-9-[3-(dimethylamino)propyl]-9H-purin-6-yl}-N′-cyclo pentyl-4-[(4-methyl-1-piperazinyl)methyl]benzohydrazide trifluoroacetate]
